Measured values: patent publication US20250161309A1, “TOPICAL COMPOSITIONS AND USES THEROF” (TOPADUR PHARMA AG, priority 2022, published 2025)

How the values were obtained:
[1] = system: C57BL/6 mouse model of alopecia; experiment: Topical administration and hair growth in C57BL/6 mouse model of alopecia (telogen phase, clipped dorsal skin); type: in vivo; settings: female mice
From the text: Dorsal hair of C57BL/6 mouse is known to have a time synchronized hair cycle. From about 18-21 days of age (2-3 weeks old) and 47-95 days of age (6-14 weeks old), the dorsal hair are in the telogen/quiescent phase (visually pink skin) [Lee B H, Lee J S, Kim Y C. Hair growth-promoting effects of lavender oil in C57BL/6 mice. Toxicol Res. (2016) 32(2):103-108; Choi H I, Kang B M, Jang J, Hwang S T, Kwon O. Novel effect of sildenafil on hair growth. Biochem Biophys Res Commun. (2018) 505(3):685-691]. C57BL/6 mouse therefore is a well-established model for studying hair growth promotion.
Male and female C57BL/6 mice of 6 to 9 weeks of age in stable telogen phase of hair growth cycle were used (obtained from Vivo Bio Tech Ltd, Telangana, India).
50 μL of a clear solution of respective 0.02%, 0.002% and 0.0002% (w/v) concentrations of Cpd 1 in the corresponding vehicle (PEG-400:EtOH/7:3) (PEG-400: Central Drug House Ltd. Dehli, India; Ethanol: Changshu Hongsheng fine chemicals Co. Ltd. China) and the positive control, 2% solution (female) or 5% (male) (w/v) Minoxidil (Chemieliva, China) in the corresponding vehicle (PEG-400:EtOH/7:3) were topically applied to the clipped area on the dorsal back of the mice. The solutions covered a circular area of approximately 2 cm^2. The treatment regimen was twice daily application for 5 days/week for total of 4 weeks.
The selected animals on day 1 weighted on average 20.05 g±0.17 ranging from 19.8 to 20.2 g. The hair on the dorsal back (approx. 4×4 cm^2) of these animals were clipped without touching the skin of the animal, using an electric clipper, on day 0 before the treatment with Cpd 1 and the hair was collected. The treatment followed by visual analysis for anagen onset, skin color change and appearance of any hair growth were monitored. After completion of the experiment, the dorsal skin of all the animals was removed and visual melanogenesis was reported. The skin sections were then preserved in 10% formalin solution for further histopathology analysis.
Animals were observed during 30 days and the hair growth score was recorded on daily basis. The criteria for scoring of hair growth is as follows: no hair growth, pink skin—score 0; skin colour changes from pink to grey/light grey without visible hair growth—score 0.5 onset of anagen (skin colour changes from grey/light grey to dark grey/black without visible hair growth)—score 1; sparse hair growth—score 1.5; diffuse short hair growth—score 2, moderate hair growth—score 2.5 and dense, normal coat hair—score 3 (Lee B H, Lee J S, Kim Y C. Hair growth-promoting effects of lavender oil in C57BL/6 mice. Toxicol Res. (2016) 32(2):103-108).
Photographs of the animals were captured before the initiation and during the course of the study.
(§1) After completion of the experiments all animals were sacrificed by euthanasia (Choi H I, Kang B M, Jang J, Hwang S T, Kwon O. Novel effect of sildenafil on hair growth. Biochem Biophys Res Commun. (2018) 505(3):685-691). The dorsal skin of each animal was then removed by peeling. The peeled skin was spread and checked visually for the induction of melanogenesis indicated by visual blackening on the reverse side of the skin. The skin samples were evenly spread on a pre-labelled glass slide and kept in 10% formalin until further use. Later, the skin samples were embedded in paraffin and sectioned at 5 microns using a microtome and the corresponding slides per animal were prepared. The slides obtained were used for Haematoxylin & Eosin (H&E) staining and in the transverse and longitudinal sections' photomicrographs data, the total number of follicles in the dermis and the sub cutis were determined for each animal. The skin thickness was measured using Image J 1.44 software.
The statistical analyses were performed using GraphPad Prism 9.0.0 software. Statistical significance was determined by One-way or Two-Way ANOVA followed by Tukey's multiple comparison test. […]

[2] = system: C57BL/6 mouse model for chemotherapy-induced alopecia (CIA); experiment: Preventive C57BL/6 mouse model of cyclophosphamide (chemotherapy)-induced alopecia (CIA), topical administration; type: in vivo; settings: female mice, 2% Minoxidil
Experimental: Female C57BL/6 mice (Vivo Bio Tech Ltd, Telangana, India) of 6 to 9 weeks of age in stable telogen phase of hair growth cycle were used.
100 μL of a clear solution of respective 0.0004%, 0.002% (w/v) concentrations of Cpd 1 in the corresponding vehicle (PEG-400:EtOH/7:3) (PEG-400: Central Drug House Ltd. Dehli, India; Ethanol: Changshu Hongsheng fine chemicals Co. Ltd. China) and the positive control, 2% solution (w/v) Minoxidil (Chemieliva, China) in the corresponding vehicle (PEG-400:EtOH/7:3) were topically applied to the depilated area on the dorsal back of female mice. The solutions covered a circular area of approximately 4 cm^2. The treatment regimen was twice daily for 7 days before Cyclophosphamide injection and afterwards for 3 weeks.
Animals (female) on day 1 weighted on average 18.8 g+0.2 ranging from 18.5 to 19.3 g. The animals were exposed by gentle clipping of hair from the dorsal back using an electric clipper. The following day, animals with clear skin were depilated using a depilatory cream. To evaluate the preventive potential of Cpd 1 in the chemotherapy-induced alopecia mouse model, animals were treated topically with 0.0004% and 0.002% Cpd 1, 2% Minoxidil and vehicle from day 1 onwards on the dorsal depilated skin with twice daily application regimen until day 10, when all the animals have attained the anagen stage. On day 11 after depilation, no application of the Cpd 1 or vehicle was done. This was considered a wash-out period. On day 12 after depilation, the animals were given intraperitoneal injection of cyclophosphamide (CYP-HiMedia Laboratories, Mumbai, India) at the dose of 150 mg/kg body weight. One day of wash-out period was given to the animals before restarting the treatment with Cpd 1. The treatment regimen was reinitiated with 0.0004% and 0.002% Cpd 1, 2% Minoxidil and vehicle in the respective groups for further 3 weeks. All the animals were observed from day 1 (experiment start) till day 30 (experiment termination and animal sacrifice day) and the hair growth score was recorded on a daily basis. The criteria for scoring of hair growth is as follows: no hair growth, pink skin—score 0; skin colour changes from pink to grey/light grey without visible hair growth—score 0.5; onset of anagen (skin colour changes from grey/light grey to dark grey/black without visible hair growth)—score 1; sparse hair growth—score 1.5; diffuse short hair growth—score 2, moderate hair growth—score 2.5 and dense, normal coat hair—score 3 (Lee B H, Lee J S, Kim Y C. Hair growth-promoting effects of lavender oil in C57BL/6 mice. Toxicol Res. (2016) 32(2):103-108). Photographs of the animals were captured before the initiation and during the course of the study. […]
as §1, with “software. […]” for “software.”

Structure (SMILES): CCCOc1ccc(S(=O)(=O)N2CCN(CCO[N+](=O)[O-])CC2)cc1-c1nc2c(CCC)cn(CC)c2c(=O)[nH]1 [Cpd 2, 2-(4-((3-(5-ethyl-4-oxo-7-propyl-4,5-dihydro-3H-pyrrolo[3,2-d]pyrimidin-2-yl)-4-propoxyphenyl)sulfonyl)piperazin-1-yl)ethyl nitrate]
- number of follicles in the subcutis layer of the skin and total follicle counts compared to control group [1]: considerable higher number
- animals with visual melanogenesis in peeled skin ([1]; 0.002% (w/v), end of study): 1/5
- skin thickness compared to vehicle and 2% Minoxidil groups ([1]; 0.02% (w/v)): increased
- animals with visual melanogenesis in peeled skin ([1]; 0.02% (w/v), end of study): 1/5
- anagen hair follicles (histology, H&E) compared to control groups ([1]; Cpd 2-treated groups): more
- area of black skin compared to control groups ([1]; at day 30): larger
- adverse effects in relation to general health or body weight ([1]; topical twice daily, 5 days/week, 4 weeks, compared to vehicle group): No adverse effects
- day of skin colour change from pink to light grey (transition from telogen to anagen phase) ([1]; treated group 2 (Table 2: 0.002% (w/v)), after hair growth induction): 10 day
- hair growth score among treatment groups ([1]; treated group 2 (Table 2: 0.002% (w/v)), at day 30, followed by low dose groups and Minoxidil group): maximal
- hair growth (score) compared to 2% Minoxidil ([1]; treated group 2 (Table 2: 0.002% (w/v)), at days 25, 29 and 30): significant increase
- hair growth (score) compared to vehicle ([1]; treated group 2 (Table 2: 0.002% (w/v), Composition A5), from day 23 on): significantly higher
- hair growth compared to vehicle group ([1]; treated group 3 (Table 2: 0.02% (w/v), Composition A6), at day 29 and 30): significantly higher

Structure (SMILES): Nc1cc(N2CCCCC2)nc(N)[n+]1[O-] [Minoxidil, 2,4-diamino-6-piperidinopyrimidine-3-oxide, reference compound]
- animals with complete hair growth (hair growth score of 3) [2]: 3/7
- animals with moderate hair growth (hair growth score of 2-2.5) [2]: 4/7
- attainment of hair growth compared to vehicle [2]: faster attainment
- depth and development of dermal papilla and long hair shaft of hair follicles observed (longitudinal skin sections) [2]: majority of the animals
- thickness of the skin compared to vehicle group [2]: slightly increase
- mice with visual melanogenesis in peeled skin ([2]; end of study): 7/7
- Ki-67 score (positive cells near the follicular region, semi-quantitative grading) ([2]; vehicle 0.4): 1.1
- CD-31 mean score (perifollicular angiogenesis, semi-quantitative grading) ([2]; vehicle group 0.8): 1.4
- visual melanogenesis in peeled skin ([1]; positive control 2% (w/v) Minoxidil, end of study): No visual melanogenesis
